Results taken from patent publication US9060993B2, “Compositions and methods for treating cancer” (The Trustees of the University of Pennsylvania, priority 2003, dated 2015).

What was measured:
ATP citrate lyase = target: T1, ATP citrate lyase (Mus musculus, UniProt Q91V92); assay: ATP citrate lyase activity in cellular extracts (malate dehydrogenase coupled, NADH consumption at 340 nm); type: biochemical; details: mitogen stimulated cell extracts
T1 construct: is added to mitogen stimulated cell extracts with an IC50 of approximately 3 μM; endogenous in cells; host or cells: IL-3-dependent cell line (FL5.12), mitogen-stimulated; cytosolic extract
T1 sequence (Q91V92 1-1091): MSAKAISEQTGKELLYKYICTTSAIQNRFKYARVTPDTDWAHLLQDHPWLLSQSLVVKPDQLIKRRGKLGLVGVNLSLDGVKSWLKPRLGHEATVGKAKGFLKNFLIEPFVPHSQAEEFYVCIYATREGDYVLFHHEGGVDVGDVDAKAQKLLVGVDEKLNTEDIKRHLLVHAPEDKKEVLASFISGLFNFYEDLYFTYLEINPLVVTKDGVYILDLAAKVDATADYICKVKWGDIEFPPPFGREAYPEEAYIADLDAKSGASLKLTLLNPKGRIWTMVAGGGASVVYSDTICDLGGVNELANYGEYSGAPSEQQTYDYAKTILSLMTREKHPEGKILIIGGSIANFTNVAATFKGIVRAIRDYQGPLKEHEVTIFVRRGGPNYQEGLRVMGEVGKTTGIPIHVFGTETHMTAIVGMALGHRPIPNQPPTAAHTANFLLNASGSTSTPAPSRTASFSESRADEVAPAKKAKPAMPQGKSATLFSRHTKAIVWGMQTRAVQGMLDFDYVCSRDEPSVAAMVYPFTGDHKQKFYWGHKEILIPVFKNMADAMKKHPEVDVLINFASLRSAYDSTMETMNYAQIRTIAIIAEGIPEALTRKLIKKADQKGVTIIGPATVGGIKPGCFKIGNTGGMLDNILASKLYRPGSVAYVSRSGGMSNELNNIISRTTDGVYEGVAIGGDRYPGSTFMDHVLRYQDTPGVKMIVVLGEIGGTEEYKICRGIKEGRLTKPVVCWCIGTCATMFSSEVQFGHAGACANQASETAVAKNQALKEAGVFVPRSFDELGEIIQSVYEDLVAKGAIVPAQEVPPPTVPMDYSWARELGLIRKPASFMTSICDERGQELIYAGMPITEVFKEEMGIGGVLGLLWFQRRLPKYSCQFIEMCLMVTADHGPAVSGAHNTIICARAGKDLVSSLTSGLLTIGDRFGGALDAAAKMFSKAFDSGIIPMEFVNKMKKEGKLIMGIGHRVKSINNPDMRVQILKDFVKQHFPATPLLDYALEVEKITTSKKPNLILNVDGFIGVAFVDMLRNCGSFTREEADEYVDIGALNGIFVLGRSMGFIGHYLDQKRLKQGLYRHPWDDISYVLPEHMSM
Description: To investigate the potential induction of ATP citrate lyase in response to mitogen stimulation of cell proliferation, an assay was developed to quantitate ATP citrate lyase (ACL) activity in cellular extracts. As a positive control, stable transfectants of a cell line dependent on IL-3 for the induction of cell proliferation was also produced. The cytosolic extracts from the wild type cells and ATP citrate lyase transfected cells were analyzed by determining the level of ATP citrate lyase activity per 10^6 cells as determined by the malate dehydrogenase catalyzed reduction of oxaloacetate by NADH. NADH consumption was measured by monitoring the reaction at 340 nm. Assays were run by providing citrate at 100 μM in the presence of 5 mM ATP and 300 μM of CoA.

FL5.12 cells = assay: Cell proliferation and survival of IL-3 stimulated FL5.12 cells in culture; type: cell-based
Description: As a result, we have investigated the ability of hydroxycitrate to inhibit the proliferative response of FL5.12 cells stimulated by interleukin-3. […] The IC50 of this effect approximates the efficacy of hydroxycitrate in inhibiting ACL-dependent fatty acid synthesis as reported by others (Pearce et al. 1998).
(§1) When 3-carbox-11-(2,4-dichlorophenyl)-3,5dihydroxyundecanoic acid (see FIG. 4 for structures) is added to mitogen stimulated cell extracts with an IC50 of approximately 3 μM and when cells were treated with a γ-lactone derivative that is cell permeant, the cell proliferation was inhibited at approximately a 10 μM concentration and both cell proliferation and cell survival were inhibited at 30 μM concentrations (FIG. 6).

[1] = test system: Bax/Bak-deficient, IL-3-dependent cell lines; assay: Mitogen-induced cell growth of Bax/Bak-deficient, IL-3-dependent cell lines; type: cell-based, mice; details: 30 μM, resting cells treated with IL-3; FIG. 14
[2] = test system: mitogen-stimulated cells and proliferating transformed cell cultures; assay: Cell cycle analysis of mitogen-stimulated cells and proliferating transformed cell cultures; type: cell-based; details: 30 μM; FIG. 8
Description: as §1

[3] = test system: cells transfected with the oncogene Bcl-xL; assay: Proliferation and cell death of Bcl-xL-transfected cells in presence or absence of the mitogen IL-3; type: cell-based; details: 30 μM, FIG. 11
[4] = test system: hematopoietic IL3-dependent cell lines; assay: In vitro apoptosis assay (Annexin V / propidium iodide flow cytometry); type: cell-based; details: 30 μM; FIG. 9
Description: Remove 500 μl of treated or untreated cells (at concentrations of 0.5-1×10^6 cells/ml) to a FACS tube and add 50 μl of 10× Annexin V binding buffer (BD Biosciences Pharmingen, San Diego, Calif.) to each tube. Stain cells with Annexin V-FITC (BD Biosciences Phanningen, San Diego, Calif. ) using 4 μl Annexin V-FITC and propidium iodide (Molecular Probes, Eugene, Oreg.) at a final concentration of 3 μg/ml of cells. The cells are preferably hematopoietic IL3-dependent cell lines such as for example IL3-dependent FL5.12 pro-B cells transfected with different transgenes (Bcl-xL, myrAkt) or vector control plasmids and IL3-dependent cells isolated from the bone marrow of Bax−/−Bak−/− knockout mice. Incubate at 37° for 30 minutes. Perform flow cytometry. Early apoptotic cells are Annexin V positive, propidium iodide negative while late apoptotic cells are both Annexin V and propidium iodide positive.
as §1

O=C(O)CC(O)(CC(O)CCCCCCc1ccc(Cl)cc1Cl)C(=O)O (centres unmarked) [3-carbox-11-(2,4-dichlorophenyl)-3,5dihydroxyundecanoic acid]
IC50 (ATP citrate lyase): ~3 µM

O=C(O)CC(O)(C(=O)O)C(O)C(=O)O (centres unmarked) [hydroxycitrate]
overall cell number and viability of cells in culture (FL5.12 cells; added to IL-3-containing cultures of FL5.12, FIG. 3): progressive decline in the overall cell number and viability

O=C(O)C[C@@]1(O)C[C@@H](CCCCCCc2ccc(Cl)cc2Cl)OC1=O [γ-lactone derivative]
mitogen-induced cell growth [1]: nearly completely inhibited | cell cycle effect [2]: G1 arrest | concentration at which both cell proliferation and cell survival were inhibited (FL5.12 cells; FIG. 6): 30 µM | concentration at which cell proliferation was inhibited (FL5.12 cells; cells treated with cell permeant γ-lactone, FIG. 6): ~10 µM | inhibition of cell proliferation in each independent cell clone (FL5.12 cells; immortalized hematopoietic cells, independent clones, doses between 10 and 30 μM, FIG. 7): approximately 50% | cell death ([3]; in presence of IL-3): induction of apoptotic cell death | mitogen-induced cell proliferation ([3]; in presence of IL-3): near complete inhibition | toxicity in nongrowing cells ([3]; nongrowing cells (IL-3 withdrawal)): relatively nontoxic | annexin-V positivity (induction of apoptosis) [4]: rapid induction of the annexin-V positivity
